# System: Daudi-luc tumor cells
# Assay: In vivo SCID-luciferase experiments
# Set-up: species or system SCID mice
# Source text: In this model tumor cells are transfected with firefly luciferase. Upon administration of luciferin (Molecular Probes, Leiden, The Netherlands) to the mice the labeled cells can be detected in vivo by bioluminescent imaging using a highly sensitive CCD camera, cf. Wetterwald et al., American Journal of Pathology 160(3), 1143-1153 (2002).
# Daudi cells were transfected with gWIZ luciferase from Gene Therapy Systems (San Diego, CA) and cultured in RPMI with 10% FCS, Pen/Strep, Sodium Pyruvate and 1 μg/ml puromycin (Sigma). Cells were analysed for luciferase expression (expressed in RLU/1×10^5 cells) in a luminometer and for CD38 expression by FACS. 2.5×10^6 luciferase-transfected Daudi cells/mouse were injected i.v. into SCID mice. Mice were treated with -003, -005, isotype control antibody (HuMab-KLH) or rituximab (anti-CD20 antibody). Antibodies were injected intraperitoneally. Four treatment settings were used (see Table 4). In the preventive setting, antibody (100 μg/mouse) and cells were administered simultaneously. In therapeutic setting I, antibody (300 μg/mouse) was administered 7 days after administration of cells. In therapeutic setting II, antibody (10 μg/mouse) was administered 14 days after administration of cells. In therapeutic setting III, antibody (100 μg/mouse) was administered 7 days after administration of cells. For imaging, mice were anesthetized by i.p. injection of a mixture of ketamine/xylazine/atropine. Synthetic D-Luciferin (sodium salt, Molecular Probes) was given i.p. at a dose of 25 mg/ml. Mice were then placed in a light tight box and after 3 min, imaging was started using a VersArray 1300B liquid nitrogen cooled CCD detector (Roper Scientific). Photons emitted from the luciferase were counted over an exposure period of 5 min. Under illumination black and white images were made for reference. MetaVue software (Universal Imaging Corp) was used for data collection and image analysis. Statistical significance of differences between groups was established using one-way analysis of variance with a Newman-Keuls post test using GraphPad PRISM version 3.02 (Graphpad Software Inc).
substance,measurement,setting,value
"rituximab [anti-CD20 antibody, reference compound]",inhibition of growth of tumor cells,"preventive setting, 100 μg/mouse, day 0, i.p.",inhibition observed
same,inhibition of growth of tumor cells,"therapeutic setting I, 300 μg/mouse, day 7, i.p.",inhibition observed

# From patent publication US20240165226A1, “COMBINATION TREATMENT OF CD38-EXPRESSING TUMORS” (GENMAB A/S, priority 2006, published 2024)
